Reference: US20120077732A1, “CYCLIC PEPTIDES AND USES THEREOF” (SYDNEY WEST AREA HEALTH SERVICE, priority 2008, published 2012)

How the values were obtained:
[1] = tested on: allergic mice (OVA/OVA); experiment: Allergic airways disease (OVA) model: inflammatory cells in BALF; format: in vivo; parameters: key to Airway lymphocytes / Airway eosinophils / Airway macrophages / Airway inflammatory cells / Airway neutrophils: nc: no change; ↑: increase; ↓: decrease
[2] = tested on: allergic mice (OVA model); format: in vivo; conditions: 200 μg subcutaneous; compared to historical OVA/OVA mice
Experimental: The effect on the inflammatory response of the 200 μg dose and subcutaneous route of administration of cyclic C1 peptide determined in Example 8 was tested with the OVA (ovalbumin) model (Temelkovski, et al. (1998); Foster, et al. (2000); Asquith et al (2008)) according to the following study design. At the endpoint mice were euthanased and BALF was obtained by cannulating the trachea and flushing the airways with two 0.8 ml volumes of Hank's Balanced Salt Solution (HBSS). Recovered cells were treated with erythrocyte lysis buffer, cytospins prepared and stained with May-Grunwald Giemsa and differential leukocyte counts performed based on morphological criteria (min 200 cells counted/slide). Statistical analysis was performed using a student's unpaired t-test. Results were compared to historical data.

[3] = in vitro; format: cell-based
Experimental: First, to determine if the activity of C1 was due to toxicity, 2B4.11 T-cells (1×10^5) were cultured in microtiter wells in the presence of the peptide conjugates at 50 μM. After 20 hours, 30 μL were removed and cells assessed for viability by trypan blue staining. The remaining culture was then pulsed with 0.5 μCi [^3H] thymidine for 5 h, harvested, and quantitated for [^3H] thymidine uptake to assess cellular proliferation.

[4] = tested on: 2B4.11 hybridoma; experiment: Antigen presentation assay (IL-2 produced in response to antigen); format: cell-based; conditions: for IL2 %: 50 μM, relative to DMSO control (100%); for IL-2 production, % of the solvent only control value: 0.5% DMSO, ±SD
[5] = 200 μg s.c. during challenge, allergic mice
[6] = 200 μg/100 μl s.c. during OVA challenge, compared to OVA/OVA alone

**Q.** Which results are given for `CC(C)C[C@@H]1NC(=O)[C@@H](CC(C)C)NC(=O)[C@H](CCCNC(=N)N)NC(=O)[C@@H](CC(C)C)NC(=O)CNC(=O)[C@@H](C(C)C)NC(=O)[C@H](CCCCN)NC(=O)[C@@H](CC(C)C)NC(=O)[C@H](CC(C)C)NC(=O)[C@@H](CC(C)C)NC1=O` [C1, LDRLDLLDLLDKVDG]?
**A.** eosinophils in BALF [1, 5]: decrease; total inflammatory cell counts in bronchoalveolar lavage fluid (BALF) [1, 5]: significantly decreased; Airway eosinophils [1, 6]: ↓; Airway inflammatory cells [1, 6]: ↓; Airway lymphocytes [1, 6]: nc; Airway macrophages [1, 6]: nc; Airway neutrophils [1, 6]: nc; eosinophils in BALF [2]: decrease; macrophages in BALF [2]: significant reduction; total inflammatory cells in BALF [2]: reduction; viability at 20 h, 50 µM [3]: 86.6%; % Ave IL2 Production ([4]; average, Tables 1-3): 17%; IL2 % ([4]; fifth IL2 column (individual experiment in triplicate)): 15.6%; IL2 % ([4]; fourth IL2 column (individual experiment in triplicate)): 18.9%; IL-2 production, % of the solvent only control value ([4]; peptide 25 μM): 59.69%±23.54; IL-2 production, % of the solvent only control value ([4]; peptide 50 μM): 7.73%±4.97
